This is an account of results in PubChem BioAssay (NCI).

Some test systems named below: U251 CNS; NCI-H522 lung; K-562 leukemia; UACC-257 melanoma; OVCAR-3 ovarian; HT29 colon; OVCAR-8 ovarian; CCRF-CEM leukemia; SF-268 CNS; NCI-H460 lung.
Holding throughout (test): growth of human tumour cells (NCI), 48 h

Structures are written as SMILES. Several values for one entry are separate records, joined by “and”; a condition that tells them apart may be missing. Equal entries are not always repeated.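 Where inhibition never reached the appropriate level, the endpoint shown equals the highest concentration tested. Otherwise, values were interpolated linearly from a five-concentration, 48-hour dose response in 96-well plates. Here, GI50 denotes the concentration required for 50% inhibition of growth. At the TGI there is no net growth.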

Regarding `CC1=C(N2CC2)C(=O)c2nc3n(c2C1=O)CCC3O` (stereo not drawn), the TGI in the assay with U251 CNS came to 0.962 µM; in the assay with NCI-H522 lung it was 0.262 µM; with K-562 leukemia it was 5.06 µM; with UACC-257 melanoma, 0.513 µM; with OVCAR-3 ovarian, 0.763 µM; in the assay on HT29 colon, 3.37 µM. Also, the TGI was found to be 0.688 µM in the assay with OVCAR-8 ovarian, 13.4 µM with CCRF-CEM leukemia, 0.629 µM with SF-268 CNS and 0.324 µM in the assay on NCI-H460 lung.
Take `CC(O)C(NC(=O)C(CS)NC(=O)C(CO)NC(=O)C(CCCCN)NC(=O)C(Cc1c[nH]c2ccccc12)NC(=O)C(Cc1ccc(O)cc1)NC(=O)C(CS)NC(=O)C(N)Cc1ccccc1)C(N)=O` (stereo not drawn): the TGI is > 25 µM and 63.1 µM in the assay with U251 CNS; greater than 25 µM in the assay on NCI-H522 lung; > 25 µM and 32.1 µM in the assay on K-562 leukemia; > 25 µM and 65.9 µM in the assay on UACC-257 melanoma; > 25 µM and 50 µM in the assay on OVCAR-3 ovarian; > 25 µM and 61.4 µM in the assay on HT29 colon. For the same molecule, the TGI in the assay on OVCAR-8 ovarian was > 25 µM and 81.5 µM; with CCRF-CEM leukemia it was > 25 µM and 43.3 µM; in the assay with SF-268 CNS, greater than 25 µM; with NCI-H460 lung, > 25 µM and 53.8 µM. Moreover, the values for the GI50 in the assay with K-562 leukemia, in the assay with OVCAR-3 ovarian and with CCRF-CEM leukemia were 17.8 µM, 21.3 µM and 19.7 µM, respectively.
With `Cc1ccc(-n2c(C)nc3c2C(=O)c2ccccc2C3=O)cc1`, the TGI in the assay with U251 CNS is greater than 100 µM; in the assay with NCI-H522 lung, greater than 100 µM; with K-562 leukemia, greater than 100 µM; in the assay on UACC-257 melanoma it was 57 µM; in the assay on OVCAR-3 ovarian, 73.2 µM; in the assay on HT29 colon, greater than 100 µM. The TGI in the assay with OVCAR-8 ovarian is greater than 100 µM; with CCRF-CEM leukemia, greater than 100 µM; with SF-268 CNS, greater than 100 µM; with NCI-H460 lung it was 19.5 µM.
Consider `COc1ccc([N+](=O)[O-])c2c(NCC(O)CO)ccnc12` (stereo not drawn), for which the TGI in the assay on U251 CNS was greater than 100 µM; in the assay with NCI-H522 lung, 30.2 µM; in the assay with K-562 leukemia it was greater than 100 µM; with UACC-257 melanoma, 95.9 µM; with OVCAR-3 ovarian, 70 µM; in the assay on HT29 colon it was greater than 100 µM. Besides, the TGI is greater than 100 µM in the assay with OVCAR-8 ovarian, greater than 100 µM in the assay on CCRF-CEM leukemia, greater than 100 µM in the assay on SF-268 CNS and 52 µM in the assay with NCI-H460 lung.
On to `CCC(=O)N1C/C(=C/c2ccc(OC)cc2)C(=O)/C(=C/c2ccc(OC)cc2)C1`, for which the GI50 in the assay with U251 CNS was 1.78 µM; in the assay with NCI-H522 lung, 1.85 µM; with K-562 leukemia it was 1.19 µM; in the assay with UACC-257 melanoma, 2.21 µM; in the assay on OVCAR-3 ovarian, 1.82 µM; with HT29 colon, 1.18 µM. Further, the GI50 is 2.86 µM in the assay on OVCAR-8 ovarian, 1.75 µM with CCRF-CEM leukemia, 2.31 µM in the assay on SF-268 CNS and 2.05 µM with NCI-H460 lung. Moreover, the TGI with U251 CNS is 4.08 µM; in the assay with NCI-H522 lung, 3.86 µM; in the assay on K-562 leukemia, greater than 100 µM; with UACC-257 melanoma, 5.88 µM; in the assay on OVCAR-3 ovarian, 3.73 µM; in the assay on HT29 colon, 4.13 µM. Moreover, the TGI in the assay on OVCAR-8 ovarian was greater than 100 µM; with CCRF-CEM leukemia, 8.31 µM; in the assay with SF-268 CNS, 5.71 µM; with NCI-H460 lung it was 4.48 µM.
With `Cc1ccc(S(=O)(=O)ON/N=C2/C3OC3[C@@H]3CCCC[C@H]23)cc1` (stereo partly drawn), the TGI was greater than 100 µM in the assay on U251 CNS; greater than 100 µM in the assay with NCI-H522 lung; greater than 100 µM in the assay with K-562 leukemia; 32.5 µM in the assay with UACC-257 melanoma; greater than 100 µM in the assay on OVCAR-3 ovarian; greater than 100 µM with HT29 colon. Moreover, the TGI in the assay with OVCAR-8 ovarian, in the assay with CCRF-CEM leukemia, in the assay on SF-268 CNS and in the assay with NCI-H460 lung was greater than 100 µM in each case.
As for `OC1CCC(Oc2cccc3cnc(Nc4ccc5nc[nH]c5c4)nc23)CC1` (stereo not drawn), the GI50 was 0.428 µM in the assay with U251 CNS; 1.13 µM with NCI-H522 lung; 0.536 µM with K-562 leukemia; 1.2 µM in the assay on UACC-257 melanoma; 0.423 µM in the assay with OVCAR-3 ovarian; 0.437 µM in the assay with HT29 colon. Moreover, the GI50 was 0.521 µM with OVCAR-8 ovarian, 0.282 µM in the assay with CCRF-CEM leukemia, 0.413 µM in the assay on SF-268 CNS and 0.275 µM with NCI-H460 lung. Besides, the TGI stood at 15.7 µM in the assay on U251 CNS; 5.3 µM in the assay with NCI-H522 lung; 19.3 µM in the assay on K-562 leukemia; 8.92 µM with UACC-257 melanoma; 19.4 µM in the assay with OVCAR-3 ovarian; 9.15 µM in the assay with HT29 colon. Besides, the TGI is 43 µM in the assay on OVCAR-8 ovarian, 17.3 µM in the assay with CCRF-CEM leukemia, 12.8 µM with SF-268 CNS and 11.8 µM with NCI-H460 lung.
Take `CN(C)CCNC(=O)c1cccc(CO)c1[N+](=O)[O-]`: the TGI in the assay with U251 CNS, with NCI-H522 lung, in the assay on K-562 leukemia, with UACC-257 melanoma, in the assay on OVCAR-3 ovarian and in the assay on HT29 colon was greater than 100 µM throughout. Also, the TGI in the assay on OVCAR-8 ovarian, in the assay on CCRF-CEM leukemia, in the assay with SF-268 CNS and in the assay with NCI-H460 lung was greater than 100 µM each time.
`Nc1ccc2c(c1)[O][Sn]([c]1ccccc1)([c]1ccccc1)[O]C2=O`: the GI50 is 8.6 µM with U251 CNS; 0.592 µM with NCI-H522 lung; 2.56 µM in the assay with K-562 leukemia; 8.14 µM in the assay with UACC-257 melanoma; 6.79 µM with OVCAR-3 ovarian; 12.1 µM in the assay on HT29 colon. Further, the GI50 in the assay with OVCAR-8 ovarian is 13.2 µM; in the assay with CCRF-CEM leukemia, 1.92 µM; in the assay with SF-268 CNS, 7.63 µM; in the assay on NCI-H460 lung, 16 µM. Further, the TGI in the assay on U251 CNS was found to be 16.3 µM; with NCI-H522 lung, 2.36 µM; with K-562 leukemia, 15.2 µM; in the assay on UACC-257 melanoma, 20 µM; in the assay with OVCAR-3 ovarian, 15.9 µM; with HT29 colon it was 26.5 µM. Besides, the TGI came out at 28.2 µM in the assay on OVCAR-8 ovarian, 7.76 µM in the assay on CCRF-CEM leukemia, 21.2 µM in the assay on SF-268 CNS and 33.6 µM with NCI-H460 lung.
In the case of `Cc1ccc(S(=O)(=O)NCCN2c3nc4ccccc4cc3Sc3cc4ccccc4nc32)cc1`, the GI50 was 4.93 µM with U251 CNS; 44.4 µM in the assay with NCI-H522 lung; greater than 100 µM in the assay with K-562 leukemia; greater than 100 µM in the assay on UACC-257 melanoma; greater than 26.8 µM with OVCAR-3 ovarian; greater than 100 µM in the assay on HT29 colon. For the same molecule, the GI50 with OVCAR-8 ovarian was 6.01 µM; in the assay on CCRF-CEM leukemia, greater than 100 µM; with SF-268 CNS, 11.4 µM; with NCI-H460 lung, greater than 100 µM. Besides, the TGI is greater than 89.9 µM in the assay with U251 CNS; greater than 100 µM in the assay on NCI-H522 lung; greater than 100 µM with K-562 leukemia; greater than 100 µM in the assay with UACC-257 melanoma; greater than 100 µM in the assay with OVCAR-3 ovarian; greater than 100 µM in the assay with HT29 colon. Also, the TGI with OVCAR-8 ovarian, with CCRF-CEM leukemia, in the assay with SF-268 CNS and in the assay on NCI-H460 lung was greater than 100 µM in each case.
